Source: ChEMBL document CHEMBL1137864, “End-capping of the modified melanocortin tetrapeptide (p-Cl)Phe-D-Phe-Arg-Trp-NH2 as a route to hMC4R agonists” (Bioorg Med Chem Lett, 2004)

Assays:
[1] = biological target: Melanocortin receptor (M1 and M4) (Homo sapiens) (UniProt P32245+Q01726); experiment: Ratio of EC50 of Melanocortin 4 receptor to that of Melanocortin 1 receptor; assay type: protein assay
Melanocortin receptor 4 = Melanocortin receptor 4 (Homo sapiens, UniProt P32245); experiment: Agonistic activity against human Melanocortin 4 receptor; assay type: functional
Melanocortin receptor 4, sequence (P32245 whole entry): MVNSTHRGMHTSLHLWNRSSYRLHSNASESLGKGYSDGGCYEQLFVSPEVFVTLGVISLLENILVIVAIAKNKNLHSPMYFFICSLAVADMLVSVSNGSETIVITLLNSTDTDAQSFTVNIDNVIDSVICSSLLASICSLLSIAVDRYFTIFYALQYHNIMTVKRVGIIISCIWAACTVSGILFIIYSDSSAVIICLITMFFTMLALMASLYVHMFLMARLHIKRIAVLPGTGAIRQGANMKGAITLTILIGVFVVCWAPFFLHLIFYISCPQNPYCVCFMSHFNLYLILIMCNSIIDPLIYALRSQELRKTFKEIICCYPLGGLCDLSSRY

[2] = biological target: Melanocortin receptor (M3 and M4) (Homo sapiens) (UniProt P32245+P41968); experiment: Ratio of EC50 of Melanocortin 4 receptor to that of Melanocortin 3 receptor; assay type: protein assay
[3] = biological target: Melanocyte-stimulating hormone receptor (Homo sapiens, UniProt Q01726); experiment: Agonistic activity against human Melanocortin 1 receptor; assay type: functional
Melanocyte-stimulating hormone receptor, sequence (Q01726 whole entry): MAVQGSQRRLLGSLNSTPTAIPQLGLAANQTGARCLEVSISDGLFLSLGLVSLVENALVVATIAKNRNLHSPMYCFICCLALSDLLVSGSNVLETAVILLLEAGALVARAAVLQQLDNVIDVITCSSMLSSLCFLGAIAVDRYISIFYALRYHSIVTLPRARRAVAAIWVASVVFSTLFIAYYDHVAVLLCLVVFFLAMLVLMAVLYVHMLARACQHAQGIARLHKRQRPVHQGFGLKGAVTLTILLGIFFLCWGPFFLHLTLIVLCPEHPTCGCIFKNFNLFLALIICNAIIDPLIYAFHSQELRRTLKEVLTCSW

Melanocortin receptor 3 = Melanocortin receptor 3 (Homo sapiens, UniProt P41968); experiment: Agonistic activity against human Melanocortin 3 receptor; assay type: functional
Melanocortin receptor 3, sequence (P41968 whole entry): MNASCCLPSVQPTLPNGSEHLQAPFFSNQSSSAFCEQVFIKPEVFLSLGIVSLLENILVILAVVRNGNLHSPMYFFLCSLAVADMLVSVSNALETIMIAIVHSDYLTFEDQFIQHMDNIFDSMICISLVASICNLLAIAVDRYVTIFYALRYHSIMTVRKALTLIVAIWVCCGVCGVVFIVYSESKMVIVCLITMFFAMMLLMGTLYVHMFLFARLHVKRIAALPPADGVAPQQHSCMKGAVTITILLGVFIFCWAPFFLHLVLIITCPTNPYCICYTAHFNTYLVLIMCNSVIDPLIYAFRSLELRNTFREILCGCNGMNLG

Compound	Ratio [1]	EC50 (Melanocortin receptor 4) [nM]	Ratio [2]	EC50 [3] [nM]	EC50 (Melanocortin receptor 3) [nM]
COP(=S)(N[C@@H](Cc1ccc(Cl)cc1)C(=O)NC(Cc1ccccc1)C(=O)N[C@@H](CCCN=C(N)N)C(=O)N[C@@H](Cc1c[nH]c2ccccc12)C(N)=O)OC (stereo in doubt)	4	446	4	1890	1600
CCC(=O)N[C@@H](Cc1ccc(Cl)cc1)C(=O)NC(Cc1ccccc1)C(=O)N[C@@H](CCCN=C(N)N)C(=O)N[C@@H](Cc1c[nH]c2ccccc12)C(N)=O (stereo in doubt)	12	159	15	1980	2360
CS(=O)(=O)N[C@@H](Cc1ccc(Cl)cc1)C(=O)NC(Cc1ccccc1)C(=O)N[C@@H](CCCN=C(N)N)C(=O)N[C@@H](Cc1c[nH]c2ccccc12)C(N)=O (stereo in doubt)	1	419	16	534	6700
N=C(N)NCCC[C@H](NC(=O)C(Cc1ccccc1)NC(=O)[C@H](Cc1ccc(Cl)cc1)NC(=O)CO)C(=O)N[C@@H](Cc1c[nH]c2ccccc12)C(N)=O (stereo in doubt)	4	114	13	499	1450
CCOC(=O)N[C@@H](Cc1ccc(Cl)cc1)C(=O)NC(Cc1ccccc1)C(=O)N[C@@H](CCCN=C(N)N)C(=O)N[C@@H](Cc1c[nH]c2ccccc12)C(N)=O (stereo in doubt)	6	35	88	211	3080
N=C(N)NCCC[C@H](NC(=O)C(Cc1ccccc1)NC(=O)[C@H](Cc1ccc(Cl)cc1)NC(=O)CCCc1ccccc1)C(=O)N[C@@H](Cc1c[nH]c2ccccc12)C(N)=O (stereo in doubt)	1	82	3	113	207
N=C(N)NCCC[C@H](NC(=O)C(Cc1ccccc1)NC(=O)[C@H](Cc1ccc(Cl)cc1)NC(=O)CCC(=O)c1ccc(F)cc1)C(=O)N[C@@H](Cc1c[nH]c2ccccc12)C(N)=O (stereo in doubt)	2	50	4	114	203

Now from value to compound:

Ratio [1]	EC50 (Melanocortin receptor 4) [nM]	Ratio [2]	EC50 [3] [nM]	EC50 (Melanocortin receptor 3) [nM]	Compound
4	121	1	442	170	N=C(N)NCCC[C@H](NC(=O)C(Cc1ccccc1)NC(=O)[C@H](Cc1ccc(Cl)cc1)NC(=O)CCc1ccccc1)C(=O)N[C@@H](Cc1c[nH]c2ccccc12)C(N)=O (stereo in doubt)
25	27	25	671	674	N=C(N)NCCC[C@H](NC(=O)C(Cc1ccccc1)NC(=O)[C@H](Cc1ccc(Cl)cc1)NC(=O)c1ccsc1)C(=O)N[C@@H](Cc1c[nH]c2ccccc12)C(N)=O (stereo in doubt)
5	135	4	700	556	N=C(N)NCCC[C@H](NC(=O)C(Cc1ccccc1)NC(=O)[C@H](Cc1ccc(Cl)cc1)NC(=O)c1ccccc1)C(=O)N[C@@H](Cc1c[nH]c2ccccc12)C(N)=O (stereo in doubt)
30	31.3	14	947	452	N=C(N)NCCC[C@H](NC(=O)C(Cc1ccccc1)NC(=O)[C@H](Cc1ccc(Cl)cc1)NC(=O)c1ccccn1)C(=O)N[C@@H](Cc1c[nH]c2ccccc12)C(N)=O (stereo in doubt)
